Results on ten compounds are retold here after US12605452B2, “Compounds that degrade kinases and uses thereof” (Regents of the University of Minnesota, priority 2019, dated 2026).

Data set [1] addresses T1, Aurora-A (Homo sapiens, UniProt O14965).
T1 sequence (O14965 1-403): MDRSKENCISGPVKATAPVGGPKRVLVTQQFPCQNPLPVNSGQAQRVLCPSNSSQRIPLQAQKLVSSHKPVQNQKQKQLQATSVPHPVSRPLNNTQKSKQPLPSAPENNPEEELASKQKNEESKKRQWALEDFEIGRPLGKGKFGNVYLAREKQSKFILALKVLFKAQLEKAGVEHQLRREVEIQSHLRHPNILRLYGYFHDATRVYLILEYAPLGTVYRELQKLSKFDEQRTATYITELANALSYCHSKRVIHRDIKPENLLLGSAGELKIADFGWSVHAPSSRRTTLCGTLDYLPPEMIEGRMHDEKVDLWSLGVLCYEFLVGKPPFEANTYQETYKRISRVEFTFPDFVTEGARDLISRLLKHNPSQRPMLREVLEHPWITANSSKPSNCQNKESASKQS
The data set can be described thus: in vitro kinase binding, Aurora-A.

The next data set concerns the target CDK4-CyclinD1 (Homo sapiens, UniProt P11802). Briefly: in vitro kinase binding, CDK4-CyclinD1.
The next data set deals with T2, Aurora-A and N-Myc (Homo sapiens, UniProt O14965).
T2 construct: endogenous in cells; host or cells: SK-N-BE(2)
T2 sequence (O14965 1-403): T1 sequence (O14965 1-403)
Briefly: immunoblotting, dose-dependent degradation of Aurora-A and N-Myc in SK-N-BE(2) cells. Format: cell-based. The conditions noted are these: for degradation of Aurora-A and N-Myc (in words): 24 hours, dose series. The method, then: (§1) MCF-7 cells were cultured in complete Dulbecco's modified Eagle medium (DMEM) supplemented with 10% (vol/vol) heat-inactivated fetal bovine serum (FBS), 100 U/ml penicillin and 100 μg/ml streptomycin. HCC38 cells were cultured in RPMI medium with 10% FBS, 100 U/ml penicillin and 100 μg/ml streptomycin. Huh7 cells were cultured in DMEM medium with 10% FBS, 100 U/ml penicillin and 100 μg/ml streptomycin supplemented with 1% MEM non-essential amino acids (SIGMA M7145). IMR-32 and SK-N-BE(2) cells were cultured in Eagle's Minimum Essential Medium (EMEM) with 10% FBS, 100 U/ml penicillin and 100 μg/ml streptomycin. All the cell lines were maintained in a humidified incubator at 37° C. and 5% CO2.
(§2) Cells were treated with 13 and other compounds at indicated concentrations and incubation time. Cells were gently rinsed once with ice-cold PBS and then lysed in radioimmnuoprecipitation assay (RIPA) lysis buffer (50 mM Tris-HCl pH 7.4, 150 mM NaCl, 1% NP-40, 0.5% sodium deoxycholate, 0.1% SDS, 5 mM EDTA, 1 mM EGTA) supplemented with 1% protease inhibitor cocktail (Roche cOmplete) and 1% phosphatase inhibitor cocktail (PhosSTOP). Cell lysates were incubated on ice for 15 mins and then kept at −80° C. before further use. The lysates were thawed on ice and the supernatants were collected after centrifugation (@11,000 rpm) for 15 min at 4° C. The protein concentration was determined using the Pierce BCA protein Assay kit and normalized before the samples were reduced in […] sample buffer and denatured at 95° C. in a heated block for 10 mins. An equal amount of protein samples (10-30 μg per lane) were resolved using 4-20% Tris-glycine gels and transferred onto PVDF blotting membranes. Primary antibodies CDK4 (DCS-35, 1:2000), N-Myc (B8.4.B, 1:5000), p21 (F-5, 1:500), p53 (DO-1, 1:1000), Aurora-A (1G4, 1:1000), β-actin (A1978, 1:2000) were used for immunoblotting. The images were detected using Li-Cor Odyssey Fc imaging system and the immunoblots were quantified by densitometry using ImageJ software.

Data set [2] relates to MCF-7, HCC38, Huh7, IMR-32 and SK-N-BE(2) cells. The data set can be described thus: Alamar blue cellular viability assay, all tested cell lines. Format: cell-based. The conditions noted are these: range over all tested cell lines; read-out: IC50, cytotoxicity. As to the method: as §1
(§3) Cancer cells were seeded in media (50 μL) 24 h prior to treatment with compounds in 96-well plates. For MCF-7 and Huh7 cells, the seeding density is 2,500 cells/well; for HCC38, the density is 2,000 cells/well; and for IMR-32 and SK-N-BE(s), the density is 5,000 cells/well. Compounds were serially diluted in pre-warmed media and dosed to cells (final volume=100 μL; final DMSO concentration=0.5%). […] After 2 hours treatment period, the fluorescence of each well was read using a BioTek Synergy H1 plate reader. […]

A further data set deals with p53 and p21. The data set can be described thus: immunoblotting, abundance of downstream signaling proteins in MCF-7 cells. Format: cell-based. The conditions noted are these: 4 hours and 24 hours. As to the method:
as §1
(§4) Cells were treated with 13 and other compounds at indicated concentrations and incubation time. […] The protein concentration was determined using the Pierce BCA protein Assay kit and normalized before the samples were reduced in […] sample buffer and denatured at 95° C. in a heated block for 10 mins. […] The images were detected using Li-Cor Odyssey Fc imaging system and the immunoblots were quantified by densitometry using ImageJ software.
Background: Immunoblotting shows a protein as a band on a membrane.

The next data set has as its system N-Myc. Briefly: immunoblotting, N-Myc depletion in MYCN amplified neuroblastoma cell lines. Format: cell-based. The conditions noted are these: IMR-32 and SK-N-BE(2) cells, 0.5 μM, after 24 hours. The method, then: as §1, §4
The target in data set [3] is T1, Aurora-A. Briefly: immunoblotting, degradation of Aurora-A in MCF-7 cells. Format: cell-based. Details: endogenous in cells; host or cells: MCF-7. The method, then:
as §1, §2

The subject of data set [4] is MCF-7 breast cancer cells. The data set can be described thus: cell cycle analysis using propidium iodide DNA staining. The conditions noted are these: compound treatment for 48 hours. Format: cell-based.
A further data set deals with T3, CDK4 (Homo sapiens, UniProt P11802).
T3 construct: endogenous in cells; host or cells: MCF-7
T3 sequence (P11802 whole entry): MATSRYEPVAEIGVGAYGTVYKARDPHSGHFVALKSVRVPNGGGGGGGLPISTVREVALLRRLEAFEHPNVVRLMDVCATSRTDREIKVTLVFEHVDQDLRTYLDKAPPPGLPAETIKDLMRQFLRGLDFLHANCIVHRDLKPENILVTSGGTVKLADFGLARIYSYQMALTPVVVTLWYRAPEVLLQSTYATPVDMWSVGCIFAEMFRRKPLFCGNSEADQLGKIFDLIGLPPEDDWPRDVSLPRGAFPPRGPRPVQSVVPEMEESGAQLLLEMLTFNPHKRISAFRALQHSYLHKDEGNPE
The data set can be described thus: immunoblotting, degradation of CDK4 in MCF-7 cells. Format: cell-based. As to the method: as §1, §2

Data set [5] has as its system IMR-32 and SK-N-BE(2) cells. Briefly: Alamar blue cellular viability assay, MYCN amplified neuroblastoma cells. Format: cell-based. The conditions noted are these: 3 days. As to the method:
as §1, §3
Background: Alamar Blue is a resazurin reagent that responds to reducing activity.

Another data set concerns MCF-7 cells. The data set can be described thus: Alamar blue cellular viability assay, MCF-7. Format: cell-based. The method, then:
as §1, §3

For a further data set, the system named is HCC38. The data set can be described thus: Alamar blue cellular viability assay, HCC38. Format: cell-based. The conditions noted are these: HCC38, ribociclib-resistant, 5 days. As to the method:
as §1, §3

The next data set relates to Huh7. The data set can be described thus: Alamar blue cellular viability assay, Huh7. Format: cell-based. The conditions noted are these: Huh7, ribociclib-resistant, 5 days. The method, then:
as §1, §3

For a further data set, the system named is cyclin D1. The data set can be described thus: immunoblotting, degradation of cyclin D1 in MCF-7 cells. Format: cell-based. As to the method: as §1, §4
The test system of data set [6] is Cyclin D and CDK4 complexes. Briefly: Western blot, degradation of Cyclin D and CDK4 complexes in MCF-7 cells. Format: cell-based. The conditions noted are these: MCF-7 breast cancer cells.

Each structure is given as a SMILES string.

Chain of CDK4-CyclinD1 (P11802 whole entry): as above
Chain of CDK4-CyclinD1 (P24385 whole entry partner): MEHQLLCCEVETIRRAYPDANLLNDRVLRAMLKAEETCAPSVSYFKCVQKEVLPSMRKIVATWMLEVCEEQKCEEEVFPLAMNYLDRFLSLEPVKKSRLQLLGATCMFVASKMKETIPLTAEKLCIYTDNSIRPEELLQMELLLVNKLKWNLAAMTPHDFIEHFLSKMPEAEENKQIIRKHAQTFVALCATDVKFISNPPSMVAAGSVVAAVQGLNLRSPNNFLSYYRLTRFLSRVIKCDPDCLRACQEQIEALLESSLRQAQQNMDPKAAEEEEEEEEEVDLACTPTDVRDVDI

In general, Kd refers to the concentration at which binding is half-saturated. High values mean a looser complex, low ones a tighter complex. As to `CNC(=O)c1ccc(Nc2ncc3cc(C(=O)N(C)C)n(C4CCCC4)c3n2)cc1` [Compound 11, 7-cyclopentyl-N,N-dimethyl-2-((4-(methylcarbamoyl)phenyl)amino)-7H-pyrrolo[2,3-d]pyrimidine-6-carboxamide], the dissociation constant Kd on Aurora-A [1] was 0.85 nM; at CDK4-CyclinD1, 3 nM.

`CNC(=O)c1ccc(Nc2ncc3cc(C(=O)N(C)C)n(C4CCCC4)c3n2)nc1` [Compound 12, 7-cyclopentyl-N,N-dimethyl-2-((5-(methylcarbamoyl)pyridin-2-yl)amino)-7H-pyrrolo[2,3-d]pyrimidine-6-carboxamide]: at Aurora-A [1], the “binding affinity with Aurora-A (in words)” value (from here on “binding affinity”) was “significant decrease of binding affinity with Aurora-A”.

For orientation: IC50 means the midpoint of a concentration-inhibition curve. As a reminder, the Dmax is the largest share of the target that was removed. Take `CN(C)C(=O)c1cc2cnc(Nc3ccc(C(=O)NCCCCCCOc4cccc5c4C(=O)N(C4CCC(=O)NC4=O)C5=O)cc3)nc2n1C1CCCC1` (stereo not drawn) [Compound 13, 7-cyclopentyl-2-((4-((6-((2-(2,6-dioxopiperidin-3-yl)-1,3-dioxoisoindolin-4-yl)oxy)hexyl)carbamoyl)phenyl)amino)-N,N-dimethyl-7H-pyrrolo[2,3-d]pyrimidine-6-carboxamide]: at Aurora-A and N-Myc, the “potency for depleting N-Myc protein compared to MLN8237 and CD532” value is given as “more potent”; the “degradation of Aurora-A and N-Myc (in words)” value was “induced the degradation of Aurora-A and N-Myc in a dose-dependent manner”. Moreover, the IC50 in [2] lay in the range of 18 to 135 nM. At Aurora-A [1], the “binding affinity” value was “maintains its binding affinity to Aurora-A”. Moreover, in the data set on p53 and p21, the “effect on p21 abundance” value is recorded as “increased the abundance” and the “effect on p53” value is “significantly stabilized p53”. Also, the “depletion of N-Myc” value in the data set with N-Myc is on record as “almost complete depletion of N-Myc”. Also, on Aurora-A [3], the “degradation of Aurora-A (in words)” value was “rapidly and potently induce the degradation of Aurora-A”. Also, the “half-life of Aurora-A” value at Aurora-A [3] (100 nM compound) came out at 1.9 h. Moreover, the “degradation potency for Aurora-A at high concentration (hook effect)” value on Aurora-A [3] (2 μM) is listed as “lower degradation potency”. Also, the DC50 at Aurora-A [3] (4 hours, read-out: DC50 (half-maximal degradation concentration) for Aurora-A) was found to be 20 nM. Further, the Dmax on Aurora-A [3] (MCF7, after 4 hours, read-out: Dmax (maximum degradation efficacy) for Aurora-A) is approximately 94%. In data set [4], the cell cycle effect result is reported as “potent G2/M phase arrest”. Besides, the “degradation of CDK4 (in words)” value at CDK4 is reported as “no obvious degradation of CDK4 was observed”. Further, the “cytotoxic potency compared to CD532” value in data set [5] is reported as “more potent than CD532”.

On to `CN(C)C(=O)c1cc2cnc(Nc3ccc(C(=O)NCCCCCCOc4cccc5c4C(=O)N(C4CCC(=O)NC4=O)C5=O)cn3)nc2n1C1CCCC1` (stereo not drawn) [Compound 14, 7-cyclopentyl-2-((5-((6-((2-(2,6-dioxopiperidin-3-yl)-1,3-dioxoisoindolin-4-yl)oxy)hexyl)carbamo-yl)pyridin-2-yl)amino)-N,N-dimethyl-7H-pyrrolo[2,3-d]pyrimidine-6-carboxamide], for which, at Aurora-A [1], binding was put at a Kd of 380 nM.

In the case of `CN(C)C(=O)c1cc2cnc(Nc3ccc(C(=O)NCCCCCCOc4cccc5c4C(=O)N(C4CCC(=O)N(C)C4=O)C5=O)cc3)nc2n1C1CCCC1` (stereo not drawn) [Compound 15, 7-cyclopentyl-N,N-dimethyl-2-((4-((6-((2-(1-methyl-2,6-dioxopiperidin-3-yl)-1,3-dioxoisoindolin-4-yl)oxy)hexyl)carbamoyl)phenyl)amino)-7H-pyrrolo[2,3-d]pyrimidine-6-carboxamide], on Aurora-A and N-Myc, the “degradation of Aurora-A and N-Myc (in words)” value is “did not affect the protein abundance even at the highest test concentration”. At Aurora-A [1], the “binding affinity” value was “maintains similar binding profile as the active form 13”. Moreover, the “potency shift from 13 (cytotoxicity)” value in the data set on MCF-7 cells (MCF-7 cells, 5 days) is reported as 4,4 fold; with HCC38, 8.2 fold; in the data set on Huh7, 20.8 fold.

For the compound `CC(=O)c1c(C)c2cnc(Nc3ccc(C(=O)NCCCCCCOc4cccc5c4C(=O)N(C4CCC(=O)NC4=O)C5=O)cc3)nc2n(C2CCCC2)c1=O` (stereo not drawn) [Compound 16, 4-((6-acetyl-8-cyclopentyl-5-methyl-7-oxo-7,8-dihydropyrido[2,3-d]pyrimidin-2-yl)amino)-N-(6-((2-(2,6-dioxopiperidin-3-yl)-1,3-dioxoisoindolin-4-yl)oxy)hexyl)benzamide], the “binding affinity” value on Aurora-A [1] is recorded as “weak binding”. Also, the “binding to CDK4 (in words)” value on CDK4-CyclinD1 is given as “weak binding”. Further, at Aurora-A [3], the “degradation of Aurora-A (in words)” value is on record as “weakly active”. Also, the “degradation of CDK4 (in words)” value on CDK4 is “weakly active”.

With `Cc1nc2c(F)cc(-c3nc(Nc4ccc(C(=O)NCCCCCCOc5cccc6c5C(=O)N(C5CCC(=O)NC5=O)C6=O)cc4)ncc3F)cc2n1C(C)C` (stereo not drawn) [Compound 17, N-(6-((2-(2,6-dioxopiperidin-3-yl)-1,3-dioxoisoindolin-4-yl)oxy)hexyl)-4-((5-fluoro-4-(4-fluoro-1-isopropyl-2-methyl-1H-benzo[d]imidazol-6-yl)pyrimidin-2-yl)amino)benzamide], the “degradation of cyclin D1 (in words)” value in the data set with cyclin D1 is “strong potency”. Further, the “binding affinity” value on Aurora-A [1] is given as “weak binding affinity”. For the same compound, the dissociation constant (Kd) at CDK4-CyclinD1 worked out at 23 nM. For the same compound, the “degradation of Aurora-A (in words)” value on Aurora-A [3] is “strong potency”. Further, the “degradation of CDK4 (in words)” value at CDK4 is “strong potency”.

On to `Cc1nc2c(F)cc(-c3nc(Nc4ccc(NC(=O)CCCCCCOc5cccc6c5C(=O)N(C5CCC(=O)NC5=O)C6=O)cc4)ncc3F)cc2n1C(C)C` (stereo not drawn) [Compound 18, 7-((2-(2,6-dioxopiperidin-3-yl)-1,3-dioxoisoindolin-4-yl)oxy)-N-(4-((5-fluoro-4-(4-fluoro-1-isopropyl-2-methyl-1H-benzo[d]imidazol-6-yl)pyrimidin-2-yl)amino)phenyl)heptanamide], for which the “cytotoxicity in MCF-7 cells (in words)” value with MCF-7 cells (palbociclib- and abemaciclib-analogue-based degraders) is given as “the most potent compound”.

As for `CN(C)C(=O)c1cc2cnc(Nc3ccc(C(=O)NCCCCCCNc4cccc5c4C(=O)N(C4CCC(=O)NC4=O)C5=O)cc3)nc2n1C1CCCC1` (stereo not drawn) [Compound 22, 7-cyclopentyl-2-((4-((6-((2-(2,6-dioxopiperidin-3-yl)-1,3-dioxoisoindolin-4-yl)amino)hexyl)carbamoyl)-phenyl)amino)-N,N-dimethyl-7H-pyrrolo[2,3-d]pyrimidine-6-carboxamide], the “degradation of Cyclin D and CDK4 complexes” value in [6] was “degrades Cyclin D and CDK4 complexes in a dose-dependent and time-dependent manner”.

`CN(C)C(=O)c1cc2cnc(Nc3ccc(N4CCNCC4)cn3)nc2n1C1CCCC1` [ribociclib, reference compound]: the cell cycle effect result in data set [4] was “induces G0/G1 arrest”.
